Test results reported in patent US10059699B2, “Tetrahydroquinoline derivatives as bromodomain inhibitors” (GlaxoSmithKline Intellectual Property (No.2) Limited, priority 2014, dated 2018).
Like-named read-outs stand apart in the source and are kept apart here.

Assays:
[1] = test system: biphenotypic B myelomonocytic leukaemia cells (MV-4-11); assay: Cancer cell line proliferation assay, MV-4-11; format: cell-based; details: Homo sapiens, MV4-11, MV-4-11 cells, 72 hours, CellTiter Glo, n = 3
Description: (§1) The impact of the compound of Examples 7 and 14 on cancer cell proliferation was determined using patient derived NUT midline carcinoma cells (11060), multiple myeloma cells (OPM-2, DSMZ) and biphenotypic B myelomonocytic leukaemia cells (MV-4-11, ATCC) in a 72 hour proliferation assay. 11060 and OPM-2 cells were maintained in RPMI 1640 medium (Invitrogen) supplemented with 10% HI-FBS (Heat-Inactivated Fetal Bovine Serum, Hyclone) and 2 mM L-glutamine (Invitrogen) at 37° C. and an atmosphere of 5% CO2. MV-4-11 cells were maintained in IMDM media supplemented with 10% HI-FCS, 2 mM L-glutamine, 1× Non-essential amino acids (Invitrogen) and 1× sodium pyruvate (1 mM) (Invitrogen). Cells were diluted to 1.11×10^5 cells/mL and 90 μL/well plated into black sided, clear bottomed 96 well tissue culture plates (Corning), using growth media supplemented with penicillin/streptomycin (Invitrogen). Cells were incubated overnight at 37° C. and in one plate, ATP levels were measured using the CellTiter Glo assay (Promega) according to the manufacturer's instructions, to give a baseline reading (t=0). 3-fold serial dilutions of compounds ranging from 6 mM to 0.3 μM were prepared in 100% DMSO. The DMSO dilution series was diluted 20-fold in growth media before 10 μl of the resulting dilutions were added to the appropriate wells of the remaining cell plates. The final compound concentrations in the wells ranged from 30 μM to 1.5 nM in 0.5% DMSO. Cells were incubated with compounds for 72 hours before assaying for ATP content using CellTiter Glo (t=72). CellTiter Glo data from each t=72 time point was normalised to the relevant t=0 time point data, and expressed as % t=0.

[2] = test system: multiple myeloma cells (OPM-2); assay: Cancer cell line proliferation assay, OPM-2; format: cell-based; details: Homo sapiens, OPM-2 cells, 72 hours, CellTiter Glo, n = 2
Description: as §1

[3] = test system: NUT midline carcinoma cells (11060); assay: Cancer cell line proliferation assay, 11060; format: cell-based; details: 11060 cells, 72 hours, CellTiter Glo, n = 3
Description: as §1

[4] = test system: Bromodomains BRD2, BRD3, BRD4 and BRDT; assay: Fluoroligand affinity for mutated vs non-mutated bromodomain; parameters: species or system Human; details: single residue mutations in the acetyl lysine binding pocket
Description: The binding of the compounds of formulae (I)-(XVI) to Bromodomains BRD2, BRD3, BRD4 and BRDT was assessed using mutated proteins to detect differential binding to either Binding Domain 1 (BD1) or Binding Domain 2 (BD2) on the bromodomain. These single residue mutations in the acetyl lysine binding pocket greatly lower the affinity of the fluoroligand (Reference Compound X) for the mutated domain (>1000 fold selective for the non-mutated domain). Therefore in the final assay conditions, binding of the fluoroligand to the mutated domain cannot be detected and subsequently the assay is suitable to determine the binding of compounds to the single non-mutated bromodomain. […]

[5] = full curve fit, read-out: Cellular Proliferation: pIC50 (converted)
[6] = read-out: Cellular Proliferation: gpIC50 (converted)

CC(=O)N1c2ccc(C(N)=O)cc2[C@H](Nc2ncc(Cl)cn2)[C@@H](C)[C@@H]1C [Example 7, (2S,3R,4R)-1-acetyl-4-((5-chloropyrimidin-2-yl)amino)-2,3-dimethyl-1,2,3,4-tetrahydroquinoline-6-carboxamide]
IC50 [1, 5]: 200 nM
IC50 [1, 6]: 158 nM
IC50 [2, 5]: 100 nM
IC50 [2, 6]: 50.1 nM
IC50 [3, 5]: 631 nM
IC50 [3, 6]: 398 nM

COc1ccc2c(c1)C(c1ccc(Cl)cc1)=N[C@@H](CC(=O)NCCCCCNC(=O)CCCCCC1(C)/C(=C/C=C/C=C/C3=[N+](CCCCS(=O)(=O)O)c4ccc(S(=O)(=O)O)cc4C3(C)C)N(CCCCS(=O)(=O)[O-])c3ccc(S(=O)(=O)O)cc31)c1nnc(C)n1-2 (stereo partly shown) [Reference Compound X]
selectivity for the non-mutated domain over the mutated domain [4]: > 1000 fold
